Blank lines part the entries; values can stand above or below the molecule they belong to.
Experiments:
[1] = tested on: U87MG pLVX-IDH2 R140Q-neo cells; test: U87MG pLVX-IDH2 R140Q-neo cell based assay, 2-HG in media by LC-MS at 48 hours; details: for IC50: Homo sapiens, U-87 MG
Procedure: U87MG pLVX-IDH2 R140Q-neo cells are grown in T125 flasks in DMEM containing 10% FBS, 1× penicillin/streptomycin and 500 μg/mL G418. They are harvested by trypsin and seeded into 96 well white bottom plates at a density of 5000 cell/well in 100 μl/well in DMEM with 10% FBS. No cells are plated in columns 1 and 12. Cells are incubated overnight at 37° C. in 5% CO2. The next day compounds are made up at 2× concentration and 100 ul are added to each cell well. The final concentration of DMSO is 0.2% and the DMSO control wells are plated in row G. The plates are then placed in the incubator for 48 hours. At 48 hours, 100 ul of media is removed from each well and analyzed by LC-MS for 2-HG concentrations. The cell plate is placed back in the incubator for another 24 hours. At 72 hours post compound addition, 10 mL/plate of Promega Cell Titer Glo reagent is thawed and mixed. The cell plate is removed from the incubator and allowed to equilibrate to room temperature. Then 100 ul of reagent is added to each well of media. The cell plate is then placed on an orbital shaker for 10 minutes and then allowed to sit at room temperature for 20 minutes. The plate is then read for luminescence with an integration time of 500 ms to determine compound effects on growth inhibition.

IDH2 R140Q = biological target: T1, IDH2 R140Q (Homo sapiens, UniProt P48735, R140Q); test: IDH2 R140Q enzymatic assay (cofactor depletion, similar format); format: biochemical; details: read-out: Enz R140Q
T1 sequence (P48735 40-452 R140Q): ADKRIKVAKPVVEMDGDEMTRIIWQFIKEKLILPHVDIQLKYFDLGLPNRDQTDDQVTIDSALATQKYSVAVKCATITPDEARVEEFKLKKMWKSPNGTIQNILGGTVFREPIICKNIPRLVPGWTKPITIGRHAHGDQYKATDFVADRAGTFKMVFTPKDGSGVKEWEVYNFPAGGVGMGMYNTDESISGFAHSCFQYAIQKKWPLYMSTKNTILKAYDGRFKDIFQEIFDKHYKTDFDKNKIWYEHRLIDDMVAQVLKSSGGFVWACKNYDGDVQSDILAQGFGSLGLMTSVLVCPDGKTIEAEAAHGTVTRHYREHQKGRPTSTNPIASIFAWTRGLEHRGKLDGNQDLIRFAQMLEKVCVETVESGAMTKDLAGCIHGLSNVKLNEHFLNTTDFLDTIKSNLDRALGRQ
Procedure: [The source words this procedure for another variant and says it was used here with some conditions changed.] Compounds are assayed for IDH2 R172K inhibitory activity through a cofactor depletion assay. […] The reaction is terminated by the addition of a second enzyme, diaphorase, and a corresponding substrate, resazurin. Diaphorase reduces resazurin to the highly fluorescent resorufin with the concomitant oxidation of NADPH to NADP, both halting the IDH2 reaction by depleting the available cofactor pool and facilitating quantitation of the amount of cofactor remaining after a specific time period through quantitative production of an easily detected fluorophore.
The test compound is then incubated for one hour at room temperature with the enzyme; before starting the IDH2 reaction with the addition of 10 μl of substrate mix containing 50 μM NADPH and 6.3 mM α-KG in the buffer described above. After a further one hour of incubation at room temperature, the reaction is halted and the remaining NADPH measured through conversion of resazurin to resorufin by the addition of 25 μl Stop Mix (36 μg/ml diaphorase enzyme and 60 μM resazurin; in buffer).

Compound: CC(C)Nc1nc(Nc2cccc(S(C)(=O)=O)c2)nc(-c2cccc(C(C)(F)F)n2)n1 [Compound 395, 6-(6-(1,1-difluoroethyl)pyridin-2-yl)-N^2-isopropyl-N^4-(3-(methylsulfonyl)phenyl)-1,3,5-triazine-2,4-diamine]
IC50 [1]: < 100 nM | IC50 (IDH2 R140Q): 100 to 1000 nM

Compound: C#Cc1cccc(-c2nc(Nc3cccc(S(C)(=O)=O)c3)nc(NC(C)C)n2)n1 [Compound 360, 6-(6-ethynylpyridine-2-yl)-N^2-isopropyl-N^4-(3-(methylsulfonyl)phenyl)-1,3,5-triazine-2,4-diamine]
IC50 [1]: 100 to 1000 nM | IC50 (IDH2 R140Q): 100 to 1000 nM

Compound: c1ccc(-c2nc(NCC3COC3)nc(Nc3ccncc3)n2)cc1 [Compound 300, N^2-(oxetan-3-ylmethyl)-6-phenyl-N^4-(pyridin-4-yl)-1,3,5-triazine-2,4-diamine]
IC50 [1]: 100 to 1000 nM | IC50 (IDH2 R140Q): 100 to 1000 nM

Compound: CC(C)(C)CNc1nc(Nc2ccc(F)nc2)nc(-c2ccccn2)n1 [Compound 363, N^2-(6-fluoropyridin-3-yl)-N^4-neopentyl-6-(pyridin-2-yl)-1,3,5-triazine-2,4-diamine]
IC50 [1]: < 100 nM | IC50 (IDH2 R140Q): 100 to 1000 nM

Compound: Fc1cncc(Nc2nc(NC3COC3)nc(-c3cccc(C(F)(F)F)n3)n2)c1 [Compound 381, N^2-(5-fluoropyridin-3-yl)-N^4-(oxetan-3-yl)-6-(6-(trifluoromethyl)pyridin-2-yl)-1,3,5-triazine-2,4-diamine]
IC50 [1]: < 100 nM | IC50 (IDH2 R140Q): 100 to 1000 nM

Compound: CC(C)(O)CNc1nc(Nc2ccc(F)nc2)nc(-c2cccc(Cl)n2)n1 [Compound 388, 1-(4-(6-chloropyridin-2-yl)-6-(6-fluoropyridin-3-ylamino)-1,3,5-triazin-2-ylamino)-2-methylpropan-2-ol]
IC50 [1]: 100 to 1000 nM | IC50 (IDH2 R140Q): 1000 to 10000 nM

Compound: CC(C)(O)CNc1nc(Nc2ccnc(F)c2)nc(-c2cccc(Cl)n2)n1 [Compound 368, 1-(4-(6-chloropyridin-2-yl)-6-(2-fluoropyridin-4-ylamino)-1,3,5-triazin-2-ylamino)-2-methylpropan-2-ol]
IC50 [1]: < 100 nM | IC50 (IDH2 R140Q): 1000 to 10000 nM

Compound: c1ccc(-c2nc(Nc3ccncc3)nc(NC3C4COCC43)n2)cc1 (stereo not drawn) [Compound 297, N^2-(3-oxabicyclo[3.1.0]hexan-6-yl)-6-phenyl-N^4-(pyridin-4-yl)-1,3,5-triazine-2,4-diamine]
IC50 [1]: < 100 nM | IC50 (IDH2 R140Q): < 100 nM

Compound: CC(C)Nc1nc(Nc2cccc(S(C)(=O)=O)c2)nc(-c2cccc(C(F)F)n2)n1 [Compound 366, 6-(6-(difluoromethyl)pyridin-2-yl)-N^2-isopropyl-N^4-(3-(methylsulfonyl)phenyl)-1,3,5-triazine-2,4-diamine]
IC50 [1]: < 100 nM | IC50 (IDH2 R140Q): 100 to 1000 nM

Compound: CC(C)Nc1nc(Nc2ccnc(C(F)(F)F)c2)nc(-c2ccccc2F)n1 [Compound 370, 6-(2-fluorophenyl)-N^2-isopropyl-N^4-(2-(trifluoromethyl)pyridin-4-yl)-1,3,5-triazine-2,4-diamine]
IC50 [1]: < 100 nM | IC50 (IDH2 R140Q): < 100 nM

Compound: O=C1C=C(Nc2nc(Nc3ccccc3)nc(-c3ccccc3)n2)CCC1 [Compound 362, 3-(4-phenyl-6-(phenylamino)-1,3,5-triazin-2-ylamino)cyclohex-2-enone]
IC50 [1]: 100 to 1000 nM | IC50 (IDH2 R140Q): 100 to 1000 nM

Compound: CC(C)(O)CNc1nc(Nc2ccncc2)nc(-c2ccccc2)n1 [Compound 265, 2-methyl-1-(4-phenyl-6-(pyridin-4-ylamino)-1,3,5-triazin-2-ylamino)propan-2-ol]
IC50 [1]: 1000 to 10000 nM | IC50 (IDH2 R140Q): 100 to 1000 nM

Compound: CC(C)Nc1nc(Nc2cncc(C(F)(F)F)c2)nc(-c2cccc(Cl)n2)n1 [Compound 394, 6-(6-chloropyridin-2-yl)-N^2-isopropyl-N4-(5-(trifluoromethyl)pyridin-3-yl)-1,3,5-triazine-2,4-diamine]
IC50 [1]: < 100 nM | IC50 (IDH2 R140Q): < 100 nM

Compound: CC(C)Nc1nc(Nc2ccnc(C#N)c2)nc(-c2cccc(Cl)n2)n1 [Compound 355, 4-(4-(6-chloropyridin-2-yl)-6-(isopropylamino)-1,3,5-triazin-2-ylamino)picolinonitrile]
IC50 [1]: < 100 nM | IC50 (IDH2 R140Q): 100 to 1000 nM

Compound: CC(C)Nc1nc(Nc2cc(F)cc(F)c2)nc(-c2cccc(N)n2)n1 [Compound 398, 6-(6-aminopyridin-2-yl)-N^2-(3,5-difluorophenyl)-N^4-isopropyl-1,3,5-triazine-2,4-diamine]
IC50 [1]: < 100 nM | IC50 (IDH2 R140Q): < 100 nM

Compound: CC(C)(O)CNc1nc(Nc2cncc(C(F)(F)F)c2)nc(-c2cccc(Cl)n2)n1 [Compound 367, 1-(4-(6-chloropyridin-2-yl)-6-(5-(trifluoromethyl)pyridin-3-ylamino)-1,3,5-triazin-2-ylamino)-2-methylpropan-2-ol]
IC50 [1]: < 100 nM | IC50 (IDH2 R140Q): 100 to 1000 nM

Now from value to molecule, other results behind:

IC50 [1]: 100 to 1000 nM | IC50 (IDH2 R140Q): < 100 nM
Compound: CC(C)Nc1nc(Nc2ccc(Cl)nc2)nc(-c2ccccc2)n1 [Compound 289, N^2-(6-chloropyridin-3-yl)-N^4-isopropyl-6-phenyl-1,3,5-triazine-2,4-diamine]

IC50 [1]: 100 to 1000 nM | IC50 (IDH2 R140Q): 100 to 1000 nM
Compound: CC(C)Nc1nc(Nc2ccncc2)nc(-c2cccc(N)c2)n1 [Compound 327]

IC50 [1]: < 100 nM | IC50 (IDH2 R140Q): < 100 nM
Compound: Cc1cc(Nc2nc(NC(C)C)nc(-c3ccccc3)n2)ccn1 [Compound 288, N^2-isopropyl-N^4-(2-methylpyridin-4-yl)-6-phenyl-1,3,5-triazine-2,4-diamine]

IC50 [1]: 1000 to 10000 nM | IC50 (IDH2 R140Q): 100 to 1000 nM
Compound: CC(C)Nc1nc(Nc2ccc(OC(C)C)nc2)nc(-c2ccccc2)n1 [Compound 312, N^2-(6-isopropoxypyridin-3-yl)-N^4-isopropyl-6-phenyl-1,3,5-triazine-2,4-diamine]

IC50 [1]: < 100 nM | IC50 (IDH2 R140Q): < 100 nM
Compound: CC(C)Nc1nc(Nc2ccc(F)nc2)nc(-c2ccccc2F)n1 [Compound 387, 6-(2-fluorophenyl)-N^2-(6-fluoropyridin-3-yl)-N^4-isopropyl-1,3,5-triazine-2,4-diamine]

IC50 (IDH2 R140Q): > 10000 nM
Compound: CC(C)Nc1nc(Nc2cn(C)cn2)nc(-c2ccccc2)n1 [Compound 332, N^2-isopropyl-N^4-(1-methyl-1H-imidazol-4-yl)-6-phenyl-1,3,5-triazine-2,4-diamine]
Cell R140Q [1]: No Fit

IC50 [1]: 100 to 1000 nM | IC50 (IDH2 R140Q): 100 to 1000 nM
Compound: CC(C)Nc1nc(Nc2ccc(OCC3CC3)nc2)nc(-c2ccccc2)n1 [Compound 311, N^2-(6-(cyclopropylmethoxy)pyridin-3-yl)-N^4-isopropyl-6-phenyl-1,3,5-triazine-2,4-diamine]

IC50 [1]: 100 to 1000 nM | IC50 (IDH2 R140Q): < 100 nM
Compound: CNc1cc(Nc2nc(NC(C)C)nc(-c3ccccc3)n2)ccn1 [Compound 302, N^2-isopropyl-N^4-(2-(methylamino)pyridin-4-yl)-6-phenyl-1,3,5-triazine-2,4-diamine]

IC50 (IDH2 R140Q): 1000 to 10000 nM
Compound: CC(C)Nc1nc(Nc2ccncc2C(F)(F)F)nc(-c2ccccc2)n1 [Compound 314, N^2-isopropyl-6-phenyl-N^4-(3-(trifluoromethyl)pyridin-4-yl)-1,3,5-triazine-2,4-diamine]
Cell R140Q [1]: No Fit

IC50 [1]: < 100 nM | IC50 (IDH2 R140Q): < 100 nM
Compound: CC(C)Nc1nc(Nc2ccnc(C3CC3)c2)nc(-c2ccccc2)n1 [Compound 315, N^2-(2-cyclopropylpyridin-4-yl)-N^4-isopropyl-6-phenyl-1,3,5-triazine-2,4-diamine]

IC50 [1]: 100 to 1000 nM | IC50 (IDH2 R140Q): < 100 nM
Compound: CC(C)Nc1nc(Nc2cnn(C)c2)nc(-c2ccccc2)n1 [Compound 308, N^2-isopropyl-N^4-(1-methyl-1H-pyrazol-4-yl)-6-phenyl-1,3,5-triazine-2,4-diamine]

From US9512107B2, “Therapeutically active compositions and their methods of use” (Agios Pharmaceuticals, Inc., priority 2012, dated 2016)
